The values below come from USRE50663E1, “Heterocycle derivatives as pesticides” (Bayer Aktiengesellschaft, priority 2017, dated 2025).

Where two headings read alike, the source gives them in different places.

A short description of data set [1]: logP by HPLC on reversed-phase column (C18), acidic range. Format: physicochemical. Conditions: formic acid in water/acetonitrile. How it is done: The logP values were determined according to EEC Directive 79/831 Annex V.A8 by HPLC (high-performance liquid chromatography) on a reversed-phase column (C18) using the following methods:
Calibration was carried out using a homologous series of straight-chain alkan-2-ones (having 3 to 16 carbon atoms) with known logP values. The values between successive alkanones are determined by linear regression.

Data set [2] concerns green peach aphids (Myzus persicae). The experiment in a line: Myzus persicae oral test. The conditions noted are these: 120 h, read-out: efficacy. Format: in vivo. The procedure: Solvent: 100 parts by weight of acetone
To produce a suitable active compound formulation, 1 part by weight of active compound is dissolved with the stated parts by weight of solvent and made up to the desired concentration with water.
50 μl of the active compound formulation are transferred into microtitre plates and made up to a final volume of 200 μl with 150 μl of IPL41 insect medium (33%+15% sugar). Subsequently, the plates are sealed with parafilm, which a mixed population of green peach aphids (Myzus persicae) within a second microtitre plate is able to puncture and imbibe the solution.
(§1) After 5 days, the efficacy in % is determined. 100% means that all the aphids have been killed; 0% means that no aphids have been killed.

In data set [3] the test system is green peach aphid (Myzus persicae). As to the kind of experiment: Myzus persicae spray test. The format is in vivo. The conditions noted are these: foliar, 120 h, read-out: efficacy. How it is done:
Solvent: 78 parts by weight of acetone • • 1.5 parts by weight of dimethylformamide
(§2) Emulsifier: alkylaryl polyglycol ether
(§3) To produce a suitable active compound formulation, 1 part by weight of active compound is dissolved with the specified parts by weight of solvent and made up to the desired concentration with water containing an emulsifier concentration of 1000 ppm. To produce further test concentrations, the formulation is diluted with emulsifier-containing water.
Discs of Chinese cabbage leaves (Brassica pekinensis) infested by all stages of the green peach aphid (Myzus persicae) are sprayed with an active compound formulation of the desired concentration.
as §1

The subject of data set [4] is adult cat fleas (Ctenocephalides felis). The experiment in a line: Ctenocephalides felis oral test. Format: in vivo. Conditions: 48 h, read-out: efficacy (kill). How it is done: (§4) Solvent: dimethyl sulfoxide
To produce a suitable active compound formulation, 10 mg of active compound are mixed with 0.5 ml of dimethyl sulfoxide. Dilution with citrated cattle blood gives the desired concentration.
About 20 unfed adult cat fleas (Ctenocephalides felis) are placed into a chamber which is closed at the top and bottom with gauze. A metal cylinder whose bottom end is closed with parafilm is placed onto the chamber. The cylinder contains the blood/active compound formulation, which can be imbibed by the fleas through the parafilm membrane.
After 2 days, the kill in % is determined. 100% means that all of the fleas have been killed; 0% means that none of the fleas have been killed.

The test system of data set [5] is larvae of the mustard beetle (Phaedon cochleariae). As to the kind of experiment: Phaedon cochleariae spray test. The conditions noted are these: foliar, 168 h, read-out: efficacy. Format: in vivo. How it is done: (§5) Solvent: 78.0 parts by weight of acetone • • 1.5 parts by weight of dimethylformamide
as §2, §3
Discs of Chinese cabbage leaves (Brassica pekinensis) are sprayed with an active compound formulation of the desired concentration and, after drying, populated with larvae of the mustard beetle (Phaedon cochleariae).
After 7 days, the efficacy in % is determined. 100% means that all the beetle larvae have been killed; 0% means that no beetle larvae have been killed.

Data set [6] concerns caterpillars of the fall armyworm (Spodoptera frugiperda). As to the kind of experiment: Spodoptera frugiperda spray test. Format: in vivo. Conditions: foliar, 168 h, read-out: efficacy. How it is done: as §5, §2, §3
Leaf discs of maize (Zea mays) are sprayed with an active compound formulation of the desired concentration and, after drying, populated with caterpillars of the fall armyworm (Spodoptera frugiperda).
After 7 days, the efficacy in % is determined. 100% means that all the caterpillars have been killed; 0% means that no caterpillar has been killed.

Data set [7] concerns L1 larvae of the Australian sheep blowfly (Lucilia cuprina). As to the kind of experiment: Lucilia cuprina test. Format: in vivo. Conditions: 48 h, read-out: efficacy (kill). How it is done: as §4
To produce a suitable active compound formulation, 10 mg of active compound are mixed with 0.5 ml of dimethyl sulfoxide, and the concentrate is diluted with water to the desired concentration.
About 20 L1 larvae of the Australian sheep blowfly (Lucilia cuprina) are transferred into a test vessel containing minced horsemeat and the active compound formulation of the desired concentration.
After 2 days, the kill in % is determined. 100% means that all the larvae have been killed; 0% means that no larvae have been killed.

The subject of data set [8] is adult cat fleas (Ctenocephalides felis). The experiment in a line: Ctenocephalides felis in vitro contact test with adult cat fleas. The format is in vivo. The conditions noted are these: application rate 5 μg/cm^2 (=500 g/ha), after 48 h, dead or moribund fleas. How it is done:
For the coating of the test tubes, 9 mg of active compound are first dissolved in 1 ml of acetone p.a. and then diluted to the desired concentration with acetone p.a. 250 μl of the solution are distributed homogeneously on the inner walls and the base of a 25 ml glass tube by turning and rocking on an orbital shaker (rocking rotation at 30 rpm for 2 h). With 900 ppm of active compound solution and internal surface area 44.7 cm^2, given homogeneous distribution, an area-based dose of 5 μg/cm^2 is achieved.
After the solvent has evaporated off, the tubes are populated with 5-10 adult cat fleas (Ctenocephalides felis), sealed with a perforated plastic lid and incubated in a horizontal position at room temperature and ambient humidity. After 48 h, efficacy is determined. To this end, the tubes are stood upright and the fleas are knocked to the base of the tube. Fleas which remain motionless at the base or move in an uncoordinated manner are considered to be dead or moribund.
100% efficacy means that all the fleas were dead or moribund. 0% efficacy means that no fleas were harmed.

Setting [9] is: reversed-phase HPLC column (C18).
The mark [10] stands for this setting: 100 g/ha, after 5 days, Chinese cabbage leaf discs.
The mark [11] stands for this setting: 100 ppm in citrated cattle blood, after 2 days.
Setting [12] is: 100 g/ha, after 7 days, Chinese cabbage leaf discs.
The mark [13] stands for this setting: 100 g/ha, after 7 days, maize leaf discs.

With `CCS(=O)(=O)c1c(-c2nc3cc(C(F)(F)F)cnc3n2C)nc2cc(CC#N)ccn12` [{3-(Ethylsulfonyl)-2-[3-methyl-6-(trifluoromethyl)-3H-imidazo[4,5-b]pyridin-2-yl]imidazo[1,2-a]pyridin-7-yl}acetonitrile], in data set [1] (setting [9]), the chromatographic logP was 2.54.

`CCOC(=O)c1nc2cc(Br)ccn2c1S(=O)(=O)CC` [Ethyl 7-bromo-3-(ethylsulfonyl)imidazo[1,2-a]pyridine-2-carboxylate] returned a chromatographic logP in data set [1] (setting [9]) of 2.22.

In data set [1] (setting [9]), `CCS(=O)(=O)c1c(-c2nc3cc(C(F)(F)F)cnc3n2C)nc2cc(C(=O)NNC3CC3)ccn12` [Example I-10, N′-Cyclopropyl-3-(ethylsulfonyl)-2-[3-methyl-6-(trifluoromethyl)-3H-imidazo[4,5-b]pyridin-2-yl]imidazo[1,2-a]pyridine-7-carbohydrazide] had a chromatographic logP of 2.41. The pest or weed control at 4 ppm in data set [2] (4 ppm, after 5 days) was determined as 100%. Further, the pest or weed control at 100 g/ha in data set [3] (setting [10]) amounted to 90%.

As for `CCOC(=O)c1nc2cc(Br)ccn2c1SCC` [Ethyl 7-bromo-3-(ethylsulfanyl)imidazo[1,2-a]pyridine-2-carboxylate], in data set [1] (setting [9]), the chromatographic logP was 2.76.

Turning to `CCS(=O)(=O)c1c(-c2nc3cc(C(F)(F)F)cnc3n2C)nc2cc(/C=C/C3CC3)ccn12` [Example I-14], the pest or weed control at 100 ppm in data set [4] (setting [11]) is 98%. For the same molecule, in data set [2] (4 ppm, after 5 days), the pest or weed control at 4 ppm was 100%. The pest or weed control at 100 g/ha in data set [3] (setting [10]) was 90%; in data set [5] (setting [12]), 100%; in data set [6] (setting [13]) it was 100%.

Take `CCS(=O)(=O)c1c(-c2nc3cc(C(F)(F)F)cnc3n2C)nc2cc(NC(=O)OC3(C)CC3)ccn12` [Example I-08, 1-Methylcyclopropyl-{3-(ethylsulfonyl)-2-[3-methyl-6-(trifluoromethyl)-3H-imidazo[4,5-b]pyridin-2-yl]imidazo[1,2-a]pyridin-7-yl}carbamate]: the chromatographic logP in data set [1] was 3.14. Besides, the pest or weed control at 100 ppm in data set [4] and in data set [7] was 100% throughout. Further, the pest or weed control at 4 ppm in data set [2] came out at 100%. Moreover, the pest or weed control at 100 g/ha in data set [5] (in Brassica rapa) and in data set [6] (in Zea mays) was 100% each time.

With `CCS(=O)(=O)c1c(C(=O)O)nc2cc(Br)ccn12` [7-Bromo-3-(ethylsulfonyeimidazo[1,2-a]pyridine-2-carboxylic acid], the chromatographic logP in data set [1] (setting [9]) is 1.52.

With `CCS(=O)(=O)c1c(-c2nc3cc(C(F)(F)F)nnc3n2C)nc2cc(NS(=O)(=O)C3CC3)ccn12` [Example I-26], in data set [3] (setting [10]), the pest or weed control at 100 g/ha stood at 100%.

As to `CCS(=O)(=O)c1c(-c2nc3cc(C(F)(F)F)cnc3n2C)nc2cc(NC(=O)OC3CCC3)ccn12` [Example I-02], the efficacy in data set [8] turned out to be 100%. Further, the pest or weed control at 100 ppm in data set [4] (setting [11]) and in data set [7] was 100% in each case. In addition, the pest or weed control at 4 ppm in data set [2] worked out at 100%. The pest or weed control at 100 g/ha in data set [3] (in Brassica rapa) worked out at 70%; in data set [5] (in Brassica rapa), 67%; in data set [6] (in Zea mays), 83%.

Molecule `CCS(=O)(=O)c1c(-c2nc3cc(C(F)(F)F)cnc3n2C)nc2cc(N)ccn12` [3-(Ethylsulfonyl)-2-[3-methyl-6-(trifluoromethyl)-3H-imidazo[4,5-b]pyridin-2-yl]imidazo[1,2-a]pyridine-7-amine] returned a chromatographic logP in data set [1] (setting [9]) of 2.13.

As to `CCS(=O)(=O)c1c(-c2nc3cc(C(F)(F)F)cnc3n2C)nc2cc(NC3=CC(=O)OC3)ccn12` [Example I-19], the pest or weed control at 100 g/ha in data set [5] (setting [12]) was 100%.

With `CCS(=O)(=O)c1c(-c2nc3cc(C(F)(F)F)ncc3n2C)nc2cc(S(=O)(=O)NC3CC3)ccn12` [Example I-23], in data set [3] (setting [10]), the pest or weed control at 100 g/ha was 90%.

With `C=CCOC(=O)Nc1ccn2c(S(=O)(=O)CC)c(-c3nc4cc(C(F)(F)F)cnc4n3C)nc2c1` [Example I-17], the pest or weed control at 100 ppm in data set [4] (setting [11]) is 100%. The pest or weed control at 100 g/ha in data set [5] (in Brassica rapa) and in data set [6] (in Zea mays) was 100% in each case.

Regarding `CCS(=O)(=O)c1c(-c2nc3cc(C(F)(F)F)cnc3n2C)nc2cc(NC(=O)OCC3CC3)ccn12` [Example I-04], the pest or weed control at 100 ppm in data set [4] (setting [11]) and in data set [7] was 100% each time. The pest or weed control at 100 g/ha in data set [5] (in Brassica rapa) and in data set [6] (in Zea mays) was 100% each time.

As to `CCS(=O)(=O)c1c(-c2nc3cc(C(F)(F)F)cnc3n2C)nc2cc(NC(=O)NC3CC3)ccn12` [Example I-03], the pest or weed control at 100 ppm is 100% in data set [4] (setting [11]) and 100% in data set [7] (100 ppm, after 2 days). Moreover, the pest or weed control at 4 ppm in data set [2] (4 ppm, after 5 days) amounted to 100%. The pest or weed control at 100 g/ha in data set [3] (setting [10]) and in data set [5] (setting [12]) was 100% in each case.

For `CCS(=O)(=O)c1c(-c2nc3cc(OC(F)(F)F)cnc3n2C)nc2cc(C3(C#N)CC3)ccn12` [Example I-29], the pest or weed control at 100 g/ha in data set [3] (setting [10]) was 90%; in data set [5] (setting [12]) it was 100%; in data set [6] (setting [13]), 100%.

The molecule `CCS(=O)(=O)c1c(-c2nc3cc(C(F)(F)F)cnc3n2C)nc2cc(Br)ccn12` [2-[7-Bromo-3-(ethylsulfonyl)imidazo[1,2-a]pyridin-2-yl]-3-methyl-6-(trifluoromethyl)-3H-imidazo[4,5-b]pyridine] showed a chromatographic logP in data set [1] (setting [9]) of 3.3.

`CCS(=O)(=O)c1c(-c2nc3cc(C(F)(F)F)cnc3n2C)nc2cc(NC(C)=O)ccn12` [N-{3-(Ethylsulfonyl)-2-[3-methyl-6-(trifluoromethyl)-3H-imidazo[4,5-b]pyridin-2-yl]imidazo[1,2-a]pyridin-7-yl}acetamide]: the chromatographic logP in data set [1] (setting [9]) amounted to 2.28.

For `CCS(=O)(=O)c1c(-c2nc3cc(S(=O)(=O)C(F)(F)F)cnc3n2C)nc2cc(S(=O)(=O)C3CC3)ccn12` [Example I-15], the pest or weed control at 100 g/ha worked out at 90% in data set [3] (setting [10]), 100% in data set [5] (setting [12]) and 100% in data set [6] (setting [13]).

For the molecule `CCS(=O)(=O)c1c(-c2nc3cc(C(F)(F)F)cnc3n2C)nc2cc(NC(=S)OCC3CC3)ccn12` [Example I-06, O-(Cyclopropylmethyl) {3-(ethylsulfonyl)-2-[3-methyl-6-(trifluoromethyl)-3H-imidazo[4,5-b]pyridin-2-yl]imidazo[1,2-a]pyridin-7-yl}carbamothioate], the chromatographic logP in data set [1] is 3.76. The pest or weed control at 4 ppm in data set [2] was 100%. Moreover, the pest or weed control at 100 g/ha in data set [5] (in Brassica rapa) and in data set [6] (in Zea mays) was 100% in each case.

For orientation: chromatographic logP means a lipophilicity value derived from retention on a column. A higher chromatographic logP goes with higher lipophilicity.
